In publication PMC7187413 (Journal of medicinal chemistry, 2020):
“Also recorded” adds a separate entry of the source.

Assays:
WDR5 = WDR5 (Homo sapiens, UniProt P61964); experiment: Competition fluorescence polarization-based assay
WDR5-MYC complex = WDR5-MYC complex (Homo sapiens, UniProt P61964); experiment: Co-IP target engagement in whole; assay type: cell-based; conditions: transformed HEK293 cells, 5 μM compound, 24 h
[1] = molecular target: MLL-1 in the full WDR5, RBBP5, ASH2L, and DPY30 (WRAD) complex (Homo sapiens, UniProt P61964); experiment: Biochemical histone methyltransferase assay; conditions: Supplemental Table 4
MYC bound to chromatin = experiment: ChIP-qPCR of MYC binding to target genes in c-MYC-HA overexpressing HEK293 cells; assay type: cell-based, human; conditions: 20 μM, 10 h
[2] = test system: WDR5 binding to chromatin; experiment: ChIP of WDR5 binding to chromatin at MYC target genes in HEK293 cells; assay type: cell-based, human; conditions: cells treated with 12 versus N.C.

With “5-Bromo-3-chloro-N-(1-cyclopentyl-2-(4-(pyrrolidin-3-yl)piperidine-1-carbonyl)-1H-imidazol-4-yl)-2-hydroxybenzenesulfonamide [Compound 9]” the Kd (WDR5; read-out: FPA Kd, competition with FITC-labeled small molecule, average of at least 3 independent replicates ± standard deviation) was 5 ± 1 µM.

O=S(=O)(Nc1cn(C2CCCC2)cn1)c1cc(Br)cc(Cl)c1O [Compound 2i, 5-Bromo-3-chloro-N-(1-cyclopentyl-1H-imidazol-4-yl)-2-hydroxybenzenesulfonamide] was tested, and the “WDR5-MYC complex formation in whole cells relative to DMSO” value (WDR5-MYC complex) was “decreased complex formation” and the “fold improvement in the binding affinity compared to 2a” value (WDR5; FPA Kd relative to 2a) was 2.5 fold.

O=S(=O)(Nc1cnn(C2CCCC2)c1)c1cc(Br)cc(Cl)c1O [Compound 3d, 5-Bromo-3-chloro-N-(1-cyclopentyl-1H-pyrazol-4-yl)-2-hydroxybenzenesulfonamide] was tested, and the “inhibition of histone methyltransferase activity of MLL-1” value (shortened to “inhibition”) [1] was “inhibited”.

In the case of CCOC(=O)c1nc(NS(=O)(=O)c2cc(Br)cc(Cl)c2O)cn1C1CCCC1 [Compound 6, Ethyl 4-((5-bromo-3-chloro-2-hydroxyphenyl)sulfonamido)-1-cyclopentyl-1H-imidazole-2-carboxylate], the “inhibition” value [1] is reported as “inhibited”.

CNC(=O)c1nc(NS(=O)(=O)c2cc(Br)cc(Cl)c2O)cn1C1CCCC1 [Compound 8, 4-((5-Bromo-3-chloro-2-hydroxyphenyl)sulfonamido)-1-cyclopentyl-N-methyl-1H-imidazole-2-carboxamide] was tested, and the “inhibition” value [1] was “inhibited”.

For CS(=O)(=O)c1nc(NS(=O)(=O)c2cc(Br)cc(Cl)c2O)cn1C1CCCC1 [Compound 12], the “amount of MYC at loci where MYC recruitment is dependent on WDR5” value (MYC bound to chromatin; C7orf40, RNPS1, RPS14, RPL5) was “reduction in the amount of MYC; also recorded: reduce the amount of MYC bound to chromatin”, the “amount of MYC at sites where MYC binding is independent of WDR5” value (MYC bound to chromatin; ZFPM1 and ZNF771) was “remained nearly unaffected; also recorded: did not affect binding of MYC” and the “WDR5 binding to chromatin at MYC target loci” value [2] was “comparable levels”. For the same compound, the “inhibition” value [1] was “inhibited”.
